Experimental data as given in patent US20230416247A1, “DRUG-LIKE MOLECULES AND METHODS FOR THE THERAPEUTIC TARGETING OF MICRORNA-21” (University of Washington, priority 2020, published 2023).

Columns and labels:
[1] = test system: pre-Let7 processing by Dicer-TRBP; assay: Dicer/TRBP in vitro processing of pre-Let7; type: biochemical, human; conditions: 2 μM compound vs no compound
Experimental: In order to further assess the biochemical activity of our compounds, processing of pre-miR-21 and pre-Let7 by Dicer-TRBP in vitro was compared. FIGS. 9A and 9B show selective response in the rate of processing under early phase reaction conditions, before significant product builds up, for pre-miR21 compared to pre-Let7.
The results are specific to the initial rates (0.25-5 min) of the reaction. […] This is inevitable because Dicer binds the product tightly. This assay and method of inhibiting miR-21 synthesis is different than typical enzymatic assays. First, the small molecule is targeting the substrate of the enzymatic assay. High affinity compounds that change the structure of the substrate may reduce processing but might not inhibit processing completely. Rather, changes in the specificity constant (kcat/Km), are a better measure of small molecule inhibition than traditional Ki's.
Dicer/TRBP. The Dicer/TRBP enzyme complex was expressed and purified using published methods and stored at −80° C. in 20 μL aliquots until needed. Briefly, the gene encoding human full-length Dicer was inserted into a modified pFastBac1 vector (Invitrogen), which has an N-terminal glutathione-S-transferase (GST) tag. […] The clones were transformed into Rosetta 2 cells and the transformants were grown in LB media at 37° C. until the cells reached a density corresponding to an OD reading of 0.8 at 600 nm. […]

[2] = test system: miR-16, miR-28, miR-182 in pancreatic (ASPC1) cells; assay: qRT-PCR of miR-16, miR-28, miR-182 in ASPC1 cells; type: cell-based, human; conditions: ASPC1, 24-72 hours post incubation, vs DMSO
Experimental: Levels of each microRNA were measured at different times post incubation (24-72 hours) by standard qRT-PCR, normalized to internal controls (U6 or U8 snRNA), in both gastric (AGC) and pancreatic (ASPC1) cell lines. Levels of the microRNA are generally the same, within experimental uncertainty, in the absence (DMSO) or presence of compound −0052 (30).
FIGS. 15A-15F show the levels of mature miR-16, miR-28, and miR-182 are not consistently affected by the compounds in both gastric (AGS) and pancreatic (ASPC1) cell lines, over multiple time scales (24-72 hours), relative to control where DMSO was added, but no compound.
Cell line maintenance. Using the Cancer Cell Line Encyclopedia (CCLE), in-house cancer cell lines were screened to identify cancer and tissue types with varying levels of miR-21 expression. Experiments were performed using the human-derived cell lines AGS (gastric cancer) and AsPC-1 (pancreatic cancer). […]
Quantitative real time PCR analysis. […] RNA concentration was assessed with the NanoDrop ND-1000 spectrophotometer (ThermoFisher Scientific). […] Expression of miR-21 was assessed utilizing the TaqMan microRNA assay (Applied Biosystems). […] All experiments were performed in triplicate, with all samples normalized to the internal controls and relative expression levels calculated using the 2^ΔΔCt method.

O=c1[nH]c(Nc2ccc(N3CCNCC3)cn2)nc2cccnc12 [Compound 25]
DICER/TRBP activity on pre-Let7 [1]: no significant difference in activity is observed

O=c1[nH]c(Nc2ccc(N3CCNCC3)cn2)nc2cnccc12 [Compound 30]
cellular levels of miR-16, miR-28, miR-182 [2]: does not affect cellular levels
